Results on one compound are retold here after US11959094B2, “Methods and compositions for genome editing in non-dividing cells” (Salk Institute for Biological Studies, priority 2016, dated 2024).

The test system of the assay is HEK293 GFP-correction line. The assay is described as follows: Targeted gene modification by HDR/HITI in HEK293 GFP-correction line. The class given is cell-based. The settings on record: NU7026 30 μM. The text has this:
Generation of HEK293 GFP-correction line. To assess the efficiency of targeted gene modification by HDR and HITI in dividing cells, a mutated GFP gene-based reporter system was established in HEK293. Briefly, pEGIP*35 was co-transfected with pMDLg/pRRE, pRSV-Rev and pMD2.G, packaged and purified as lentiviral vectors according to a published protocol Kutner, R. H., Zhang, X.-Y. & Reiser, J. Production, concentration and titration of pseudotyped HIV-1-based lentiviral vectors. Nature Protocols 4, 495-505 (2009). HEK293 cells were transduced in suspension with lentiviral EGIP*35 vector and 4 μg/ml polybrene for 1 h. After brief centrifugation to remove any residual lentiviral vector, the cells were seeded in 100 mm dishes. Three days after transduction, puromycin (1-2 μg/ml; Invitrogen) was added to the medium. After 10 days, single colonies were individually picked up and expanded as HEK293 GFP-correction line.
Transfection of in vitro cultured cells. […]
Existing methods were improved for more robust NHEJ-based targeted knock-in. […] The efficiencies of targeted gene replacement via HDR and homology-independent targeted integration (HITI) were determined by GFP and mCherry signals respectively (FIG. 1A). […]

Each structure is given as a SMILES string.

`O=c1cc(N2CCOCC2)oc2c1ccc1ccccc12` [NU7026]: the “effect of NHEJ inhibitor on efficiency of HITI” value is “significantly decreased”.
